pIC50: −log10 of the molar value.
Biological target: human Cat S (Homo sapiens, UniProt P25774)
Assay: Cathepsin enzyme inhibition assay (fluorogenic peptide substrate cleavage)
Format: biochemical
Settings: human Cat S 1 nM; substrate Z-Val-Val-Arg-AMC 20 μM; pH 6.5; fluorescence over 20 minutes
Protocol: Cathepsin Enzyme Inhibition Assay
Enzyme activity is measured by observing the increase in fluorescence intensity caused by cleavage of a peptide substrate containing a fluorophore whose emission is quenched in the intact peptide.
Assay buffer: 100 mM potassium phosphate pH 6.5, EDTA-Na 5 mM, Triton X-100 0.001%, DTT 5 mM. Enzymes (all at 1 nM): human and mouse Cathepsin S, Cat K, Cat B, Cat L. Substrate (20 μM): Z-Val-Val-Arg-AMC, except for Cat K which uses Z-Leu-Arg-AMC (both from Bachem).
AMC=7-Amino-4-Methyl-Coumarin.
DTT=dithiothreitol. Final volume: 100 μL.
Excitation 360 nm, Emission 465 nm.
Enzyme is added to the substance dilutions in 96-well microtitre plates and the reaction is started with substrate. Fluorescence emission is measured over 20 minutes, during which time a linear increase is observed in the absence of inhibitor. IC50 are calculated by standard methods. Inhibition of human Cat S, mouse Cat S, human Cat K, mouse Cat K, human Cat B, mouse Cat B, human Cat L and mouse Cat L have been measured separately. The results obtained for human Cat S are expressed in the following table.

Sequence of human Cat S (P25774 115-331): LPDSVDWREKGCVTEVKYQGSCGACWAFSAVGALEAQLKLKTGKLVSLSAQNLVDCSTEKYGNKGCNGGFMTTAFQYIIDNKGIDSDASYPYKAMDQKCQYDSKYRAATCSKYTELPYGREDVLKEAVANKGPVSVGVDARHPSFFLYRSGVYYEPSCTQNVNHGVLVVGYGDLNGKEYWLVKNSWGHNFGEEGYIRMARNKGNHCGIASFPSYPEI

Structure (SMILES) | pIC50
CCO[C@@H]1C[C@H](S(=O)(=O)c2ccc(-c3c(C)noc3C)cc2C(F)(F)F)C[C@H]1C(=O)NC1(C#N)CC1 (racemic) [Example 115, (1R,2R,4R) and (1S,2S,4S)-4-[4-(3,5-Dimethyl-isoxazol-4-yl)-2-trifluoromethyl-benzenesulfonyl]-2-ethoxy-cyclopentanecarboxylic acid (1-cyano-cyclopropyl)-amide] | 9.70
Cn1nccc1-c1cccc(S(=O)(=O)[C@@H]2C[C@@H](C(=O)NC3(C#N)CC3)[C@H](C(=O)N3CCC(F)(F)C3)C2)c1 [Example 201, (1R,2R,4R)-2-(3,3-Difluoro-pyrrolidine-1-carbonyl)-4-[3-(2-methyl-2H-pyrazol-3-yl)-benzenesulfonyl]-cyclopentanecarboxylic acid (1-cyano-cyclopropyl)-amide] | 9.47
Cc1ccc(CO[C@@H]2C[C@H](S(=O)(=O)c3ccccc3Cl)C[C@H]2C(=O)NC2(C#N)CC2)cc1 (racemic) [Example 150, (1R,2R,4R) and (1S,2S,4S)-4-(2-Chlorophenylsulfonyl)-N-(1-cyanocyclopropyl)-2-(4-methylbenzyloxy)cyclopentanecarboxamide] | 8.38
N#CC1(NC(=O)C2CC(S(=O)(=O)c3ccc(-n4cccn4)cc3C(F)(F)F)CC2C(=O)N2CC(F)(F)C2)CC1 (stereo not shown) [Example 128, 2-(3,3-Difluoro-azetidine-1-carbonyl)-4-(4-pyrazol-1-yl-2-trifluoromethyl-benzenesulfonyl)-cyclopentanecarboxylic acid (1-cyano-cyclopropyl)-amide] | 9.15
N#CC1(NC(=O)[C@@H]2C[C@@H](S(=O)(=O)c3ccc(Br)cc3C(F)(F)F)C[C@H]2OC2CCOCC2)CC1 (racemic) [Example 169, (1R,2R,4R) and (1S,2S,4S)-4-(4-Bromo-2-trifluoromethyl-benzenesulfonyl)-2-(tetrahydro-pyran-4-yloxy)-cyclopentanecarboxylic acid (1-cyano-cyclopropyl)-amide] | 8.91
N#CC1(NC(=O)[C@@H]2C[C@@H](S(=O)(=O)c3ccccc3)C[C@H]2C(=O)N2CCOCC2)CCC1 [Example 35, (1R,2R,4R)-4-Benzenesulfonyl-2-(morpholine-4-carbonyl)-cyclopentanecarboxylic acid (1-cyano-cyclobutyl)-amide] | 8.40
N#CC1(NC(=O)[C@@H]2C[C@@H](S(=O)(=O)c3ccc(Cl)cc3Cl)C[C@H]2OCc2ccc(Cl)cc2)CC1 (racemic) [Example 233, (1R,2R,4R) and (1S,2S,4S)-2-(4-Chloro-benzyloxy)-4-(2,4-dichloro-benzenesulfonyl)-cyclopentanecarboxylic acid (1-cyano-cyclopropyl)-amide] | 7.98
N#CC1(NC(=O)[C@@H]2C[C@@H](S(=O)(=O)c3ccccc3C(F)(F)F)C[C@H]2OC2CCCC2)CC1 (racemic) [Example 221, (1R,2R,4R) and (1S,2S,4S)-2-Cyclopentyloxy-4-(2-trifluoromethyl-benzenesulfonyl)-cyclopentanecarboxylic acid (1-cyano-cyclopropyl)-amide] | 8.08
N#CC1(NC(=O)[C@@H]2C[C@@H](S(=O)(=O)c3ccccc3C(F)(F)F)C[C@H]2OCc2ccc(Cl)cc2)CC1 (racemic) [Example 232, (1R,2R,4R) and (1S,2S,4S)-2-(4-Chloro-benzyloxy)-4-(2-trifluoromethyl-benzenesulfonyl)-cyclopentanecarboxylic acid (1-cyano-cyclopropyl)-amide] | 8.73
CO[C@@H]1C[C@H](S(=O)(=O)c2ccc(-c3cnn(CCO)c3)cc2C(F)(F)F)C[C@H]1C(=O)NC1(C#N)CC1 (racemic) [Example 170, (1R,2R,4R) and (1S,2S,4S)-4-{4-[1-(2-Hydroxy-ethyl)-1H-pyrazol-4-yl]-2-trifluoromethyl-benzenesulfonyl}-2-methoxy-cyclopentanecarboxylic acid (1-cyano-cyclopropyl)-amide] | 9.23
CN1CCC(C#N)(NC(=O)[C@@H]2C[C@@H](S(=O)(=O)c3ccc(Cl)cc3Cl)C[C@H]2OCc2ccc(Cl)cc2)CC1 (racemic) [Example 234, (1R,2R,4R) and (1S,2S,4S)-2-(4-Chloro-benzyloxy)-4-(2,4-dichloro-benzenesulfonyl)-cyclopentanecarboxylic acid (4-cyano-1-methyl-piperidin-4-yl)-amide] | 7.72
N#CC1(NC(=O)[C@@H]2C[C@@H](S(=O)(=O)c3ccccc3Cl)C[C@H]2OCc2cc(F)c(Cl)cc2Cl)CC1 (racemic) [Example 180, (1R,2R,4R) and (1S,2S,4S)-4-(2-Chlorophenylsulfonyl)-N-(1-cyanocyclopropyl)-2-(2,4-dichloro-5-fluorobenzyloxy)cyclopentanecarboxamide] | 6.80
CC(=O)N1CCN(c2ccc(S(=O)(=O)[C@@H]3C[C@@H](C(=O)NC4(C#N)CC4)[C@H](C(=O)N4CCC(F)(F)C4)C3)c(Cl)c2)CC1 [Example 208, (1R,2R,4R)-4-[4-(4-Acetyl-piperazin-1-yl)-2-chloro-benzenesulfonyl]-2-(3,3-difluoro-pyrrolidine-1-carbonyl)-cyclopentanecarboxylic acid (1-cyano-cyclopropyl)-amide] | 8.84
CO[C@@H]1C[C@H](S(=O)(=O)c2ccc(N3CCCCC3)cc2Cl)C[C@H]1C(=O)NC1(C#N)CC1 (racemic) [Example 64, (1R,2R,4R) and (1S,2S,4S)-4-(2-Chloro-4-piperidin-1-yl-benzenesulfonyl)-2-methoxy-cyclopentanecarboxylic acid (1-cyano-cyclopropyl)-amide] | 7.92
CO[C@@H]1C[C@H](S(=O)(=O)c2ccc(Br)cc2C(F)(F)F)C[C@H]1C(=O)NC1(C#N)CC1 (racemic) [Example 58, (1R,2R,4R) and (1S,2S,4S)-4-(4-Bromo-2-trifluoromethyl-benzenesulfonyl)-2-methoxy-cyclopentanecarboxylic acid (1-cyano-cyclopropyl)-amide] | 8.21
CO[C@@H]1C[C@H](S(=O)(=O)c2ccc(-c3ccnn3C)cc2C(F)(F)F)C[C@H]1C(=O)NC1(C#N)CC1 (racemic) [Example 72, (1R,2R,4R) and (1S,2S,4S)-2-Methoxy-4-[4-(1-methyl-1H-pyrazol-5-yl)-2-trifluoromethyl-benzenesulfonyl]-cyclopentanecarboxylic acid (1-cyano-cyclopropyl)-amide] | 8.92
N#CC1(NC(=O)[C@@H]2C[C@@H](S(=O)(=O)c3ccccc3Cl)C[C@H]2C(=O)N2CCOCC2)CC1 [Example 9, (1R,2R,4R)-4-(2-Chloro-benzenesulfonyl)-2-(morpholine-4-carbonyl)-cyclopentanecarboxylic acid (1-cyano-cyclopropyl)-amide] | 9.05
CO[C@@H]1C[C@H](S(=O)(=O)c2ccc(-c3cnn(CC(N)=O)c3)cc2C(F)(F)F)C[C@H]1C(=O)NC1(C#N)CC1 (racemic) [Example 194, (1R,2R,4R) and (1S,2S,4S)-4-[4-(1-Carbamoylmethyl-1H-pyrazol-4-yl)-2-trifluoromethyl-benzenesulfonyl]-2-methoxy-cyclopentanecarboxylic acid (1-cyano-cyclopropyl)-amide] | 9.15
N#CC1(NC(=O)[C@@H]2C[C@@H](S(=O)(=O)c3ccccc3)C[C@H]2C(=O)N2CC(O)C2)CC1 [Example 15, (1R,2R,4R)-4-Benzenesulfonyl-2-(3-hydroxy-azetidine-1-carbonyl)-cyclopentanecarboxylic acid (1-cyano-cyclopropyl)-amide] | 8.13

Source: patent US20100317647A1 (priority 2009, published 2010)
